Structures can show the parent of a compound that is named as a salt. Where two headings read alike, the source gives them in different places. Each block holds one molecule with its values, some of them ahead of it.
How the values were obtained:
male ICR mice = settings: 30 mg per 1 kg orally once a day during 3 days, plasma at 24 hours after administration, p<0.05
Procedure: The solution was administered oraly once a day during successive 3 days to male ICR mice (10-week old, n=12). The dosage was 30 mg per 1 kg of body weight. ICR mice administered with vehicle alone were used as control (n=15). At 24 hours after the administration, blood was collected from jugular vein under anesthesia with ether. To the blood were immediately added ethylenediamine tetracetate (EDTA) at a final concentration of 3 mg/ml and aprotinin at a final concentration of 300 KIU/ml. The mixture was centrifuged for 15 minutes at 3000×g, and the concentration of testosterone in the plasma was measured by the radio immunoassay.
The rate of testosterone suppression (%) of the test compound was determined by the formula; 100−(concentration of plasma testosterone in the test group)/(concentration of plasma testosterone in the control group)×100.

[1] = tested on: primary cultured cells of rat pituitary anterior lobes; assay: Inhibition of LH/FSH secretion by primary cultured cells of rat pituitary anterior lobes; assay type: cell-based; settings: 100 μl of 20 μM compound solution + 100 μl of 5 nM GnRH in 800 μl medium, 37° C. for 3 hours
Procedure: Anterior lobes of pituitary glands from 40 Wistar rats (8-week old, male) was put into a petri dish containing buffer A (0.7 mM sodium dihydrogen phosphate, 137 mM sodium chloride, 5 mM potassium chloride, 25 mM HEPES, 50 μg/ml gentamicin sulfate), which was once washed with the buffer A, then the anterior lobes were divided into four portions, followed by further washing twice. […] The concentrations of […] and FSH in the supernatant were determined by using the radio immunoassay kit (Amersham Inc.).
By calculating in accordance with the formula; 100−(LH or FSH concentration in the presence of the compound)/(LH or FSH concentration of the control culture)×100, the inhibiting rate (%) of LH or FSH secretion by each compound was determined. […]

male SD rats = assay: Suppression of testosterone concentration in rat plasma; assay type: in vivo; settings: 30 mg per 1 kg once subcutaneously, plasma at 24 hours after administration, p<0.05
Procedure: The compound 15 produced in Working Example 9 was dissolved in vehicle I (20% propylene glycol-80% physiological saline). The solution was administered once subcutaneously to male SD rats (8-week old, n=5). […] Animals administered with the vehicle alone were used as control.

Structure (SMILES): CCC(=O)Nc1ccc(-c2sc3c(c2CN(C)Cc2ccccc2)c(=O)c(C(=O)c2ccccc2)cn3Cc2c(F)cccc2F)cc1 [Working Example 56, 5-Benzoyl-7-(2,6-difluorobenzyl)-4,7-dihydro-3-(N-methyl-N-benzylaminomethyl)-2-(4-propionylamidophenyl)-4-oxothieno[2,3-b]pyridine]
- rate of testosterone suppression (%) (male ICR mice): 85±9.7%

Structure (SMILES): CCOC(=O)c1cn(Cc2ccccc2OC)c2sc(-c3ccc(OC)cc3)c(CN(C)Cc3ccccc3)c2c1=O [3-(N-benzyl-N-methylaminomethyl)-4,7-dihydro-7-(2-methoxybenzyl)-2-(4-methoxyphenyl)-4-oxothieno[2,3-b]pyridine-5-carboxylic acid ethyl ester]
- inhibition at 20 µM (stock) ([1]; p<0.01, n=3, read-out: inhibiting rate (%) of FSH secretion): 20 ± 10%
- inhibition at 20 µM (stock) ([1]; p<0.01, n=3, read-out: inhibiting rate (%) of LH secretion): 28 ± 9%
- rate of testosterone suppression (%) (male SD rats): 38±9.7%

- melting point: 147 to 152 °C
Structure (SMILES): CCOC(=O)c1cn(Cc2ccccc2OC)c2sc(-c3ccc(OC)cc3)c(CN(C)Cc3ccccc3)c2c1=O (as salt: hydrochloride) [3-(N-benzyl-N-methylaminomethyl)-4,7-dihydro-7-(2-methoxybenzyl)-2-(4-methoxyphenyl)-4-oxothieno[2,3-b]pyridine-5-carboxylic acid ethyl ester]

From patent US6514988B1, “Condensed-ring thiophene derivatives, their production and use” (Takeda Chemical Industries, Ltd., priority 1994, dated 2003)
